Numbers after ± are expanded uncertainties.
Settings: 101.33 kPa, Liquid, Vibrating tube method

**Q.** Which results are given for `CN(C)CCCN` [N,N-dimethyl-1,3-propanediamine]?
**A.** mass density (278.15 K): 830.37 ± 0.44 kg/m3; mass density (278.65 K): 829.93 ± 0.44 kg/m3; mass density (279.15 K): 829.49 ± 0.44 kg/m3; mass density (279.65 K): 829.05 ± 0.44 kg/m3; mass density (280.15 K): 828.61 ± 0.44 kg/m3; mass density (280.65 K): 828.17 ± 0.44 kg/m3; mass density (281.15 K): 827.73 ± 0.44 kg/m3; mass density (281.65 K): 827.29 ± 0.44 kg/m3; mass density (282.15 K): 826.84 ± 0.44 kg/m3; mass density (282.65 K): 826.4 ± 0.44 kg/m3; mass density (283.15 K): 825.96 ± 0.44 kg/m3; mass density (283.65 K): 825.52 ± 0.44 kg/m3; mass density (284.15 K): 825.08 ± 0.44 kg/m3; mass density (284.65 K): 824.64 ± 0.44 kg/m3; mass density (285.15 K): 824.2 ± 0.44 kg/m3; mass density (285.65 K): 823.76 ± 0.44 kg/m3; mass density (286.15 K): 823.32 ± 0.44 kg/m3; mass density (286.65 K): 822.88 ± 0.44 kg/m3; mass density (287.15 K): 822.44 ± 0.44 kg/m3; mass density (287.65 K): 822 ± 0.44 kg/m3; mass density (288.15 K): 821.56 ± 0.44 kg/m3; mass density (288.65 K): 821.12 ± 0.44 kg/m3; mass density (289.15 K): 820.67 ± 0.44 kg/m3; mass density (289.65 K): 820.23 ± 0.44 kg/m3; mass density (290.15 K): 819.79 ± 0.44 kg/m3; mass density (290.65 K): 819.35 ± 0.44 kg/m3; mass density (291.15 K): 818.91 ± 0.44 kg/m3; mass density (291.65 K): 818.47 ± 0.44 kg/m3; mass density (292.15 K): 818.03 ± 0.44 kg/m3; mass density (292.65 K): 817.58 ± 0.44 kg/m3; mass density (293.15 K): 817.14 ± 0.44 kg/m3; mass density (293.65 K): 816.7 ± 0.44 kg/m3; mass density (294.15 K): 816.26 ± 0.44 kg/m3; mass density (294.65 K): 815.82 ± 0.44 kg/m3; mass density (295.15 K): 815.37 ± 0.44 kg/m3; mass density (295.65 K): 814.93 ± 0.43 kg/m3; mass density (296.15 K): 814.49 ± 0.43 kg/m3; mass density (296.65 K): 814.05 ± 0.43 kg/m3; mass density (297.15 K): 813.6 ± 0.43 kg/m3; mass density (297.65 K): 813.16 ± 0.43 kg/m3; mass density (298.15 K): 812.72 ± 0.43 kg/m3; mass density (298.65 K): 812.27 ± 0.43 kg/m3; mass density (299.15 K): 811.83 ± 0.43 kg/m3; mass density (299.65 K): 811.39 ± 0.43 kg/m3; mass density (300.15 K): 810.94 ± 0.43 kg/m3; mass density (300.65 K): 810.5 ± 0.43 kg/m3; mass density (301.15 K): 810.06 ± 0.43 kg/m3; mass density (301.65 K): 809.61 ± 0.43 kg/m3; mass density (302.15 K): 809.17 ± 0.43 kg/m3; mass density (302.65 K): 808.72 ± 0.43 kg/m3; mass density (303.15 K): 808.28 ± 0.43 kg/m3; mass density (303.65 K): 807.84 ± 0.43 kg/m3; mass density (304.15 K): 807.39 ± 0.43 kg/m3; mass density (304.65 K): 806.95 ± 0.43 kg/m3; mass density (305.15 K): 806.5 ± 0.43 kg/m3; mass density (305.65 K): 806.06 ± 0.43 kg/m3; mass density (306.15 K): 805.61 ± 0.43 kg/m3; mass density (306.65 K): 805.17 ± 0.43 kg/m3; mass density (307.15 K): 804.72 ± 0.43 kg/m3; mass density (307.65 K): 804.28 ± 0.43 kg/m3; mass density (308.15 K): 803.83 ± 0.43 kg/m3; mass density (308.65 K): 803.39 ± 0.43 kg/m3; mass density (309.15 K): 802.94 ± 0.43 kg/m3; mass density (309.65 K): 802.5 ± 0.43 kg/m3; mass density (310.15 K): 802.05 ± 0.43 kg/m3; mass density (310.65 K): 801.61 ± 0.43 kg/m3; mass density (311.15 K): 801.16 ± 0.43 kg/m3; mass density (311.65 K): 800.72 ± 0.43 kg/m3; mass density (312.15 K): 800.27 ± 0.43 kg/m3; mass density (312.65 K): 799.82 ± 0.43 kg/m3; mass density (313.15 K): 799.38 ± 0.43 kg/m3; mass density (313.65 K): 798.93 ± 0.43 kg/m3; mass density (314.15 K): 798.48 ± 0.43 kg/m3; mass density (314.65 K): 798.04 ± 0.43 kg/m3; mass density (315.15 K): 797.59 ± 0.43 kg/m3; mass density (315.65 K): 797.14 ± 0.43 kg/m3; mass density (316.15 K): 796.69 ± 0.43 kg/m3; mass density (316.65 K): 796.25 ± 0.43 kg/m3; mass density (317.15 K): 795.8 ± 0.43 kg/m3; mass density (317.65 K): 795.35 ± 0.43 kg/m3; mass density (318.15 K): 794.9 ± 0.43 kg/m3; mass density (318.65 K): 794.45 ± 0.43 kg/m3; mass density (319.15 K): 794.01 ± 0.43 kg/m3; mass density (319.65 K): 793.56 ± 0.43 kg/m3; mass density (320.15 K): 793.11 ± 0.43 kg/m3; mass density (320.65 K): 792.66 ± 0.43 kg/m3; mass density (321.15 K): 792.21 ± 0.43 kg/m3; mass density (321.65 K): 791.76 ± 0.43 kg/m3; mass density (322.15 K): 791.31 ± 0.43 kg/m3; mass density (322.65 K): 790.86 ± 0.43 kg/m3; mass density (323.15 K): 790.41 ± 0.43 kg/m3; mass density (323.65 K): 789.96 ± 0.43 kg/m3; mass density (324.15 K): 789.52 ± 0.43 kg/m3; mass density (324.65 K): 789.06 ± 0.43 kg/m3; mass density (325.15 K): 788.62 ± 0.43 kg/m3; mass density (325.65 K): 788.17 ± 0.43 kg/m3; mass density (326.15 K): 787.72 ± 0.43 kg/m3; mass density (326.65 K): 787.26 ± 0.43 kg/m3; mass density (327.15 K): 786.81 ± 0.43 kg/m3; mass density (327.65 K): 786.36 ± 0.43 kg/m3; mass density (328.15 K): 785.91 ± 0.43 kg/m3; mass density (328.65 K): 785.46 ± 0.43 kg/m3; mass density (329.15 K): 785.01 ± 0.43 kg/m3; mass density (329.65 K): 784.56 ± 0.43 kg/m3; mass density (330.15 K): 784.11 ± 0.43 kg/m3; mass density (330.65 K): 783.65 ± 0.43 kg/m3; mass density (331.15 K): 783.2 ± 0.43 kg/m3; mass density (331.65 K): 782.75 ± 0.43 kg/m3; mass density (332.15 K): 782.3 ± 0.43 kg/m3; mass density (332.65 K): 781.84 ± 0.43 kg/m3; mass density (333.15 K): 781.39 ± 0.43 kg/m3; mass density (333.65 K): 780.94 ± 0.43 kg/m3; mass density (334.15 K): 780.49 ± 0.43 kg/m3; mass density (334.65 K): 780.03 ± 0.43 kg/m3; mass density (335.15 K): 779.58 ± 0.43 kg/m3; mass density (335.65 K): 779.12 ± 0.43 kg/m3; mass density (336.15 K): 778.67 ± 0.42 kg/m3; mass density (336.65 K): 778.22 ± 0.42 kg/m3; mass density (337.15 K): 777.76 ± 0.42 kg/m3; mass density (337.65 K): 777.31 ± 0.42 kg/m3; mass density (338.15 K): 776.85 ± 0.42 kg/m3; mass density (338.65 K): 776.4 ± 0.42 kg/m3; mass density (339.15 K): 775.94 ± 0.42 kg/m3; mass density (339.65 K): 775.49 ± 0.42 kg/m3; mass density (340.15 K): 775.03 ± 0.42 kg/m3; mass density (340.65 K): 774.57 ± 0.42 kg/m3; mass density (341.15 K): 774.11 ± 0.42 kg/m3; mass density (341.65 K): 773.66 ± 0.42 kg/m3; mass density (342.15 K): 773.2 ± 0.42 kg/m3; mass density (342.65 K): 772.74 ± 0.42 kg/m3; mass density (343.15 K): 772.29 ± 0.42 kg/m3; mass density (343.65 K): 771.83 ± 0.42 kg/m3; mass density (344.15 K): 771.37 ± 0.42 kg/m3; mass density (344.65 K): 770.91 ± 0.42 kg/m3; mass density (345.15 K): 770.45 ± 0.42 kg/m3; mass density (345.65 K): 769.99 ± 0.42 kg/m3; mass density (346.15 K): 769.53 ± 0.42 kg/m3; mass density (346.65 K): 769.08 ± 0.42 kg/m3; mass density (347.15 K): 768.62 ± 0.42 kg/m3; mass density (347.65 K): 768.16 ± 0.42 kg/m3; mass density (348.15 K): 767.7 ± 0.42 kg/m3; mass density (348.65 K): 767.24 ± 0.42 kg/m3; mass density (349.15 K): 766.78 ± 0.42 kg/m3; mass density (349.65 K): 766.32 ± 0.42 kg/m3; mass density (350.15 K): 765.86 ± 0.42 kg/m3; mass density (350.65 K): 765.4 ± 0.42 kg/m3; mass density (351.15 K): 764.94 ± 0.42 kg/m3; mass density (351.65 K): 764.48 ± 0.42 kg/m3; mass density (352.15 K): 764.02 ± 0.42 kg/m3; mass density (352.65 K): 763.56 ± 0.42 kg/m3; mass density (353.15 K): 763.1 ± 0.42 kg/m3; mass density (353.65 K): 762.64 ± 0.42 kg/m3; mass density (354.15 K): 762.17 ± 0.42 kg/m3; mass density (354.65 K): 761.71 ± 0.42 kg/m3; mass density (355.15 K): 761.25 ± 0.42 kg/m3; mass density (355.65 K): 760.79 ± 0.42 kg/m3; mass density (356.15 K): 760.33 ± 0.42 kg/m3; mass density (356.65 K): 759.86 ± 0.42 kg/m3; mass density (357.15 K): 759.4 ± 0.42 kg/m3; mass density (357.65 K): 758.94 ± 0.42 kg/m3; mass density (358.15 K): 758.48 ± 0.42 kg/m3; mass density (358.65 K): 758.01 ± 0.42 kg/m3; mass density (359.15 K): 757.55 ± 0.42 kg/m3; mass density (359.65 K): 757.08 ± 0.42 kg/m3; mass density (360.15 K): 756.62 ± 0.42 kg/m3; mass density (360.65 K): 756.15 ± 0.42 kg/m3; mass density (361.15 K): 755.69 ± 0.42 kg/m3; mass density (361.65 K): 755.22 ± 0.42 kg/m3; mass density (362.15 K): 754.75 ± 0.42 kg/m3; mass density (362.65 K): 754.28 ± 0.42 kg/m3; mass density (363.15 K): 753.82 ± 0.42 kg/m3

Source: the NIST ThermoML archive (doi:10.1016/j.tca.2006.04.016)
